{"source": "patent US11078189B2", "about": "“Pharmaceutical compounds” (REVIRAL LIMITED, priority 2017, dated 2021)", "key": {"[1]": {"molecular_target": "T1, RSV fusion (pCDNA3.1_A2_F in HEK 293T cells) (Human respiratory syncytial virus A, UniProt P03420)", "T1 construct": "expressed in transfected cells; host or cells: HEK 293T (ECACC 12022001)", "T1 sequence (P03420 26-109)": "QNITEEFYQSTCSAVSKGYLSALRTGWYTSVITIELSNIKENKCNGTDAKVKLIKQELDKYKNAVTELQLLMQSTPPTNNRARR", "T1 sequence (P03420 137-574)": "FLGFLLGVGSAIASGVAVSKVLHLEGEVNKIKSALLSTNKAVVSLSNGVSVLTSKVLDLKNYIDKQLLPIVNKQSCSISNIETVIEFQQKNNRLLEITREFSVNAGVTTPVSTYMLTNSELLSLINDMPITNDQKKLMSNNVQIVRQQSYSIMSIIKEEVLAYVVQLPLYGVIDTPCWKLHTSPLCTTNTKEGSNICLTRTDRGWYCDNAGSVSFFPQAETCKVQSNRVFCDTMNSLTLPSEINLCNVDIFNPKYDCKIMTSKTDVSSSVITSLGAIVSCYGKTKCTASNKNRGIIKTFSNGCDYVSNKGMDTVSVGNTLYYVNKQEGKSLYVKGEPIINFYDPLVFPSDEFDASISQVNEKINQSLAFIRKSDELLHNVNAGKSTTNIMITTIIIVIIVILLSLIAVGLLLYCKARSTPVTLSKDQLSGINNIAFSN", "assay": "RSV fusion assay", "assay_type": "cell-based", "protocol": "HEK 293T ((ECACC 12022001) cells were cultured in T75 culture flasks in Dulbecco's medium (DMEM) containing 10% Foetal Bovine serum (FBS), 50 units per mL Penicillin and 50 μg/mL Streptomycin and warmed to 37° C. prior to use. The cells were passaged by first washing briefly with 5 mL Phosphate buffered saline (PBS), followed by addition of 2 mL of Trypsin Ethylenediaminetetraacetic acid (EDTA) to detach the cells. Once cells had detached from the flask, 8 mL media was then added to and the cells dispersed via pipetting against the bottom of the flask.\nThe cells were counted and diluted to 3×10^5 cells/ml in fresh media. Two T75 flasks were each seeded with 15.6 mL diluted cells, cells were also subcultured at a ratio of between 1:2 and 1:10, to continue the stock. The flasks were then incubated for 24 h at 37° C. and 5% CO2.\nThe plasmid DNA (for pFR-Luc and pcDNA3. 1_Gal4/NFKB) to be transfected into the HEK 293T cells was first prepared in serum free media (Opti-MEM, Invitrogen), containing the transfection reagent FuGENE® 6 (Promega). Serum free media was placed in a 1.5 mL eppendorf tube then the FuGENE 6 was added into the media. The tube was vortexed for 1 s before being incubated at RT for 5 min. 7.79 ng of both pFR_luc and pCDNA3.1_A2_F plasmid DNA were added to tube 1 and 7.79 ng of pCDNA3.1_GAL4-NF-κB plasmid to tube 2. The tubes were vortexed for 1 second and then incubated at room temperature for 15 min. Each transfection mixture was then added into the media of one of the T75 flasks of 293T cells. Cells were cultured for 24h at 37° C., 5% CO2 in a humidified incubator.\nCompounds were diluted (in a polypropylene round-bottomed 96 well plate) 1:3 in a twelve point dilution curve to give top [final] of either 25 μM, 3 μM, 1 μM or 500 nM. A control compound was included in every assay at a top concentration of 3 μM. Transfected cells were counted and diluted to 4×10^5 cells/mL in fresh media. 50 μL of transfection population 1 were added to all wells of the 96 well flat bottom white opaque assay plates. 100 μL diluted compound (2 rows per compound), control compound (one row) and controls (DMSO (0% inhibition, four wells), 3 μM positive control (100% inhibition, four wells) and media (transfection population 1 only, four wells) were added to the appropriate wells. 50 μL of the diluted (4×10^5 cells/mL) population 2 cells when then added to all wells, except the four wells of transfection population 1 only where an extra 50 μL of this cells population was added.\nThe plates were then incubated for 24 h at 37° C. and 5% CO2. After this time, 100 μL was removed from all wells and 60 μL of ONE-Glo™ (Promega) reagent, pre-equilibrated to room temperature, was added. Plates were then incubated for 3 min at room temperature before luminescence was read, using the ONE-Glo protocol, on the GloMax Explorer System (Promega) multimode reader. Analysis was carried out in Dotmatics software. All raw data were background subtracted (subtraction of mean 3 μM positive control value), before IC50 calculation."}, "RSV A2 VR-1540": {"tested_on": "RSV A2 VR-1540", "assay": "RSV plaque reduction assay", "assay_type": "cell-based", "conditions": "human respiratory syncytial virus; Strain A2; n = 1; HEp-2 cells", "protocol": "HEp-2 cells (ATCC, CCL23) were passaged in flasks and seeded in 96-well plates in DMEM containing antibiotics and supplemented with 10% FBS. During inoculation and subsequent incubation, cells were cultured in DMEM containing 3% FBS. 100 plaque forming unit (PFU)/well of RSV (RSV A2 VR-1540) was mixed with ten serial dilutions of compound. Subsequently, 100 μL of the virus/compound mixtures was added to confluent HEp-2 cell monolayers. The cells and virus/compound mixtures were incubated at 35° C. in a humidified 5% CO2 incubator for 1 day.\nCells were washed twice with PBS before adding 50% v/v EtOH/MeOH, and then stored at −20° C. On the day of the staining, fixative was first removed from the plates. Plates were washed 3× with PBS. A pre-titrated amount of the primary antibody was added in 60 μL PBS/2% milk powder, and plates incubated for 1 h at […]. The plates were washed 3× with PBS/0.05% Tween20 before addition of goat anti-mouse horse radish peroxidase in 60 μL PBS/2% milk powder, and incubated for 1 h at rt. Following three wash steps with PBS/0.05% Tween20, 60 μL ready-to-use TrueBlue was added and plates were incubated at rt for 10-15 min before adding MilliQ water. Plates were washed once with water, incubated for 30-60 min and after removal of water, air-dried in the dark.\nPlates were scanned and analyzed using the Immunospot S6 UV analyzer, which is equipped with BioSpot analysis software for counting immunostained plaques (virospots). Plaque counts were used to calculate % infection relative to the mean of the spot count (SC) in the virus control wells for RSV. IC50/IC90 values were calculated as 50% or 90% reduction in signal, respectively, by interpolation of inhibition curves fitted with a 4-parameter nonlinear regression with a variable slope in GraphPad 5.0 (Prism)."}, "MDR1": {"tested_on": "MDR1", "assay": "in vitro", "assay_type": "in vitro ADME", "conditions": "dog, MDCK-MDR1", "protocol": "MDR1-MDCK cells obtained from the NIH (Rockville, Md., USA) are used between passage numbers 6-30. Cells are seeded onto Millipore Multiscreen Transwell plates at 3.4×10^5 cells/cm^2. The cells are cultured in DMEM and media is changed on day 3. On day 4 the permeability study is performed. Cell culture and assay incubations are carried out at 37° C. in an atmosphere of 5% CO2 with a relative humidity of 95%. On the day of the assay, the monolayers are prepared by rinsing both basolateral and apical surfaces twice with Hanks Balanced Salt Solution (HBSS) at the desired pH warmed to 37° C. Cells are then incubated with HBSS at the desired pH in both apical and basolateral compartments for 40 min to stabilise physiological parameters.\nThe dosing solutions are prepared by diluting test compound with assay buffer to give a final test compound concentration of 10 μM (final DMSO concentration of 1% v/v). The fluorescent integrity marker lucifer yellow is also included in the dosing solution. Analytical standards are prepared from test compound DMSO dilutions and transferred to buffer, maintaining a 1% v/v DMSO concentration.\nFor assessment of A-B permeability, HBSS is removed from the apical compartment and replaced with test compound dosing solution. The apical compartment insert is then placed into a companion plate containing fresh buffer (containing 1% v/v DMSO). For assessment of B-A permeability, FIBSS is removed from the companion plate and replaced with test compound dosing solution. Fresh buffer (containing 1% v/v DMSO) is added to the apical compartment insert, which is then placed into the companion plate. At 60 min the apical compartment inserts and the companion plates are separated and apical and basolateral samples diluted for analysis. Test compound permeability is assessed in duplicate. Compounds of known permeability characteristics are run as controls on each assay plate.\nTest and control compounds are quantified by LC-MSMIS cassette analysis using an 8-point calibration with appropriate dilution of the samples. The starting concentration (C0) is determined from the dosing solution and the experimental recovery calculated from C0 and both apical and basolateral compartment concentrations. The integrity of the monolayer throughout the experiment is checked by monitoring lucifer yellow permeation using fluorimetric analysis. Lucifer yellow permeation is high if monolayers have been damaged."}}, "data": [{"smiles": "CS(=O)(=O)N1CCN(CCCn2c(CN3C(=O)C4(CC4)c4ccc(F)cc43)nc3cc(Cl)ccc32)CC1", "note": "[Compound 1, 1′-({5-Chloro-1-[3-(4-methanesulfonylpiperazin-1-yl)propyl]-1H-1,3-benzodiazol-2-yl}methyl)-6′-fluoro-1,2′-dihydrospiro[cyclopropane-1,3′-indole]-2′-one]", "values": [{"measurement": "IC50", "setting": "[1]", "value": 19, "unit": "nM"}, {"measurement": "IC50", "setting": "RSV A2 VR-1540", "value": 5.9, "unit": "nM"}, {"measurement": "IC90", "setting": "RSV A2 VR-1540", "value": 50, "unit": "nM"}]}, {"smiles": "CS(=O)(=O)N1CCN(CCn2c(CN3C(=O)C4(CC4)c4ccc(F)cc43)nc3cc(Cl)ccc32)CC1", "note": "[Compound 9, 1′-({5-chloro-1-[2-(4-methanesulfonylpiperazin-1-yl)ethyl]-1H-1,3-benzodiazol-2-yl}methyl)-6′-fluoro-1′,2′-dihydrospiro[cyclopropan-1,3′-indole]-2′-one]", "values": [{"measurement": "IC50", "setting": "[1]", "value": 15, "unit": "nM"}, {"measurement": "IC50", "setting": "RSV A2 VR-1540", "value": 4.2, "unit": "nM"}, {"measurement": "IC90", "setting": "RSV A2 VR-1540", "value": 28, "unit": "nM"}]}, {"smiles": "CS(=O)(=O)CCNCCCn1c(CN2C(=O)C3(CC3)c3ccc(F)cc32)nc2cc(Cl)ccc21", "note": "[Compound 10, 1′-[(5-Chloro-1-{3-[(2-methanesulfonylethyl)amino]propyl}-1H-1,3-benzodiazol-2-yl)methyl]-6′-fluoro-1′,2′-dihydrospiro[cyclopropane-1,3′-indole]-2′-one]", "values": [{"measurement": "IC50", "setting": "[1]", "value": 12, "unit": "nM"}, {"measurement": "IC50", "setting": "RSV A2 VR-1540", "value": 2.5, "unit": "nM"}, {"measurement": "IC90", "setting": "RSV A2 VR-1540", "value": 31, "unit": "nM"}]}, {"smiles": "CCS(=O)(=O)CCNCCCn1c(CN2C(=O)C3(CC3)c3ccc(F)cc32)nc2cc(Cl)ccc21", "note": "[Compound 11, 1′-{[5-Chloro-1-(3-{[2-(ethanesulfonyl)ethyl]amino}propyl)-1H-1,3-benzodiazol-2-yl]methyl}-6′-fluoro-1′,2′-dihydrospiro[cyclopropane-1,3′-indole]-2′-one]", "values": [{"measurement": "IC50", "setting": "[1]", "value": 24, "unit": "nM"}, {"measurement": "IC50", "setting": "RSV A2 VR-1540", "value": 5, "unit": "nM"}, {"measurement": "IC90", "setting": "RSV A2 VR-1540", "value": 41, "unit": "nM"}]}, {"smiles": "CC(C)[C@H](NCCCn1c(CN2C(=O)C3(CC3)c3ccc(F)cc32)nc2cc(Cl)ccc21)C(N)=O", "note": "[Compound 12, (2S)-2-({3-[5-chloro-2-({6′-fluoro-2′-oxo-1′,2′-dihydrospiro[cyclopropane-1,3′-indole]-1′-yl}methyl)-1H-1,3-benzodiazol-1-yl]propyl}amino)-3-methylbutanamide]", "values": [{"measurement": "IC50", "setting": "[1]", "value": 71, "unit": "nM"}, {"measurement": "IC50", "setting": "RSV A2 VR-1540", "value": 29, "unit": "nM"}, {"measurement": "IC90", "setting": "RSV A2 VR-1540", "value": 200, "unit": "nM"}]}, {"smiles": "CS(=O)(=O)C1CN(CCCn2c(CN3C(=O)C4(CC4)c4ccc(F)cc43)nc3cc(Cl)ccc32)C1", "note": "[Compound 13, 1′-({5-Chloro-1-[3-(3-methanesulfonylazetidin-1-yl)propyl]-1H-1,3-benzodiazol-2-yl}methyl)-6′-fluoro-1′,2′-dihydrospiro[cyclopropane-1,3′-indole]-2′-one]", "values": [{"measurement": "IC50", "setting": "[1]", "value": 10, "unit": "nM"}, {"measurement": "IC50", "setting": "RSV A2 VR-1540", "value": 4.5, "unit": "nM"}, {"measurement": "IC90", "setting": "RSV A2 VR-1540", "value": 41, "unit": "nM"}]}, {"smiles": "CS(=O)(=O)C1CCN(CCCn2c(CN3C(=O)C4(CC4)c4ccc(F)cc43)nc3cc(Cl)ccc32)C1", "note": "(stereo not shown) [Compound 14, 1′-({5-Chloro-1-[3-(3-methanesulfonylpyrrolidin-1-yl)propyl]-1H-1,3-benzodiazol-2-yl}methyl)-6′-fluoro-1′,2′-dihydrospiro[cyclopropane-1,3′-indole]-2′-one]", "values": [{"measurement": "IC50", "setting": "[1]", "value": 18, "unit": "nM"}, {"measurement": "IC50", "setting": "RSV A2 VR-1540", "value": 3.5, "unit": "nM"}, {"measurement": "IC90", "setting": "RSV A2 VR-1540", "value": 34, "unit": "nM"}, {"measurement": "Papp A→B at 60 min, 10 μM", "setting": "MDR1", "value": 4.8, "unit": "×10⁻⁶ cm/s"}, {"measurement": "Papp B→A at 60 min, 10 μM", "setting": "MDR1", "value": 68, "unit": "×10⁻⁶ cm/s"}]}, {"smiles": "O=C1N(Cc2nc3cc(Cl)ccc3n2CCCN2CCOCC2)c2cc(F)ccc2C12CC2", "note": "[Compound 18, 1′-({5-Chloro-1-[3-(morpholin-4-yl)propyl]-1H-1,3-benzodiazol-2-yl}methyl)-6′-fluoro-1′,2′-dihydrospiro[cyclopropane-1,3′-indole]-2′-one]", "values": [{"measurement": "IC50", "setting": "[1]", "value": 70, "unit": "nM"}, {"measurement": "IC50", "setting": "RSV A2 VR-1540", "value": 7.6, "unit": "nM"}, {"measurement": "IC90", "setting": "RSV A2 VR-1540", "value": 60, "unit": "nM"}]}, {"smiles": "CS(=O)(=O)C1CCN(CCCn2c(CN3C(=O)C4(CC4)c4ccc(F)cc43)nc3cc(Cl)ccc32)CC1", "note": "[Compound 20, 1′-({5-Chloro-1-[3-(4-methanesulfonylpiperidin-1-yl)propyl]-1H-1,3-benzodiazol-2-yl}methyl)-6′-fluoro-1′,2′-dihydrospiro[cyclopropane-1,3′-indole]-2′-one]", "values": [{"measurement": "IC50", "setting": "[1]", "value": 12, "unit": "nM"}, {"measurement": "IC50", "setting": "RSV A2 VR-1540", "value": 5.9, "unit": "nM"}, {"measurement": "IC90", "setting": "RSV A2 VR-1540", "value": 7.5, "unit": "nM"}, {"measurement": "Papp A→B at 60 min, 10 μM", "setting": "MDR1", "value": 1.6, "unit": "×10⁻⁶ cm/s"}, {"measurement": "Papp B→A at 60 min, 10 μM", "setting": "MDR1", "value": 61.3, "unit": "×10⁻⁶ cm/s"}]}, {"smiles": "O=C1N(Cc2nc3cc(Cl)ccc3n2CCCN2CCS(=O)(=O)CC2)c2cc(F)ccc2C12CC2", "note": "[Compound 28, 4-{3-[5-Chloro-2-({6′-fluoro-2′-oxo-1′,2′-dihydrospiro[cyclopropane-1,3′-indole]-1′-yl}methyl)-1H-1,3-benzodiazol-1-yl]propyl}-1λ6-thiomorpholine-1,1-dione]", "values": [{"measurement": "IC50", "setting": "[1]", "value": 115, "unit": "nM"}, {"measurement": "IC50", "setting": "RSV A2 VR-1540", "value": 9.5, "unit": "nM"}, {"measurement": "IC90", "setting": "RSV A2 VR-1540", "value": 48, "unit": "nM"}]}]}
